Laboratory results taken from patent US20240132559A1, “COMPOSITIONS AND METHODS FOR MODULATING MYC EXPRESSION” (FLAGSHIP PIONEERING INNOVATIONS V, INC., priority 2020, published 2024).

How the values were obtained:
A549 cells [1] = test: A549 viability with ZF9-MQ1 and small molecule inhibitors, alone and combined; type: cell-based, human; details: each agent separately
A549 cells [2] = test: A549 cell viability, ZF9-MQ1 alone and with BET or MEK inhibitors (CellTiter-GLO); type: cell-based, human; details: 72-hour incubation, single agent
Protocol: This example evaluates the effect of ZF9-MQ1 construct on A549 cell viability when used in combination with varying concentrations of JQ1 inhibitor.
(§1) A549 cells were seeded at 4,000 cells per well in duplicate plates for cell viability analysis. The 96-well plates were treated in triplicate with GFP or ZF9-MQ1 loaded LNPs at 0.5 ug/mL or 1.0 μg/mL in combination with increasing concentrations of the BET inhibitor JQ1 (concentrations up to 6.25 uM) and incubated. Untreated cells and GFP treated cells were used as controls. After 72-hour incubation, one 96-well plate was lysed with CellTiter-GLO® and luminescence was quantified using the GloMax® Discovery plate reader.
This example evaluates the effect of ZF9-MQ1 construct on A549 cell viability when used in combination with varying concentrations of BET762 inhibitor.
as §1, with “μg/mL” for “ug/mL”, “concentrations (concentrations up to 1.25 uM)” for “concentrations”, “BET762” for “JQ1 (concentrations up to 6.25 uM)”
This example evaluates the effect of ZF9-MQ1 construct on A549 cell viability when used in combination with varying concentrations of BET inhibitor, Birabresib.
as §1, with “μg/mL” for “ug/mL”, “concentrations (concentrations up to 0.625 uM for 0.5 μg/ml ZF9-MQ1 treated cells and up to 0.313 uM for 1.0 μg/ml ZF9-MQ1 treated cells)” for “concentrations”, “Birabresib” for “JQ1 (concentrations up to 6.25 uM)”
This example evaluates the effect of ZF9-MQ1 construct on A549 cell viability when used in combination with varying concentrations of MEK inhibitor, Trametinib.
as §1, with “μg/mL” for “ug/mL”, “concentrations” for “concentrations of the BET inhibitor JQ1”, “0.05” for “6.25”, “uM) of the MEK inhibitor Trametinib” for “uM)”, “Untreated cells and GFP treated cells were used as controls.” left out

SKHEP1 and Hep 3B cells = test: IC50 of sorafenib or JQ1 in combination with bi-cistronic ZF9-MQ1_ZF3-KRAB; type: cell-based, human; details: with bi-cistronic ZF9-MQ1_ZF3-KRAB at 0.6 and 0.1 ug/ml
Hep 3B cells = test: JQ1 dose response viability with bi-cistronic ZF9-MQ1_ZF3-KRAB (CellTiter-GLO); type: cell-based; details: Homo sapiens, Hep3B, 72 h
From the text: (§2) This example evaluates the efficacy of bi-cistronic ZF9-MQ1_ZF3-KRAB in combination with JQ1 (BET inhibitor) in multiple HCC cell lines. […] Later generation BET inhibitors are currently being evaluated in the clinic for hematologic indications; however, their toxicity profile have limited their use. Combination treatments that can increase the potency of BET inhibitors at reduced dose levels could improve BET inhibitor tolerability.
(§3) To evaluate potential synergy between bi-cistronic ZF9-MQ1_ZF3-KRAB and JQ1, Hep 3B or SK-HEP-1 cells were plated in 96 well plates at 10,000 cells per well. Cells were then treated with JQ1 with a dose range between 0.1 and 25 μM, with serial dilution of 1:2. Lipid mix carrying bi-cistronic ZF9-MQ1_ZF3-KRAB was then added to a set of the wells at a dose of 0.1 or 0.6 μg/mL. A set of cells was treated with JQ1 alone to use as control. Following 72-hour treatment, cells were lysed with the CellTiter-GLO® reagent and luminescence was quantified using the Glo Max. Relative cell viability was calculated by averaging the untreated values and dividing each experimental luciferase value by that average.

SK-HEP-1 cells = test: as above; type: cell-based; details: Homo sapiens, SK-HEP1, 72 h, SKHEP-1, 72-hour
From the text: as §2, §3

MYC = MYC mRNA expression by qPCR in human lung cancer cell lines after LNP transfection; type: cell-based
Protocol: Viability was measured using the CellTiter-GLO® assay kit from Promega according to manufacturer's protocol. RNA was isolated from three biological replicates, using the Rneasy® Plus 96-well Kit (Qiagen) following the Manufacturer's protocol. RNA samples were retrotranscribed to cDNA using LunaScript® RT SuperMix Kit (NEB) and analyzed by quantitative PCR (qPCR) (in technical triplicates) using a MYC specific TaqMan™ primer/probe set assay with the TaqMan™ Fast Advanced Master Mix (Thermo Scientific). MYC expression was quantified relative to the expression of GAPDH reference genes using the ΔΔCt method, the untreated and dCas9(no-effector) samples were used as calibrators.
(§4) Guide RNAs (Table 13) were designed across the lung super-enhancer region and tested in combination with the KRAB repressor protein conjugated to an enzymatically dead CAS9. The effector mRNA and guide RNAs were co-delivered using LNP delivery with SSOP with mRNA delivery of GFP as a negative control. NCSLC cell line A549 were seeded in 96-well plates in growth media (10000 cells/well). LNP formulations (2.5 ug/ml) were then added to the cells to transfect the effector mRNA/guide RNA then incubated for 72 hours. RNA was isolated from three biological replicates, using the Rneasy® Plus 96-well Kit (Qiagen) following the Manufacture's protocol. RNA samples were retrotranscribed to cDNA using LunaScript® RT SuperMix Kit (NEB) and analyzed by quantitative PCR (qPCR) (in technical triplicates) using a MYC specific TaqMan™ primer/probe set assay with the TaqMan™ Fast Advanced Master Mix (Thermo Scientific). MYC expression was quantified relative to the expression of GAPDH reference genes using the ΔΔCt method, the untreated samples were used as calibrators.
as §4, with “GuideRNAs” for “Guide RNAs”, “MC3” for “SSOP”
Guide RNAs (GD-29833 and GD-29914) targeted to the MYC super-enhancer were tested in combination with repressor proteins including the histone methyltransferase EZH2 (alone or in conjunction with KRAB) and the DNA methyltransferase MQ1 conjugated to an enzymatically dead CAS9. The effector mRNA and guide RNAs were co-delivered using LNP delivery with SSOP with mRNA delivery of GFP as a negative control. NCSLC cell lines A549 or NCI-H2009 were seeded in 96-well plates in growth media (10000 cells/well). LNP formulations (2.5 ug/ml) were then added to the cells to transfect the effector mRNA/guide RNA then incubated for 72 hours. RNA was isolated from three biological replicates, using the Rneasy® Plus 96-well Kit (Qiagen) following the Manufacture's protocol. RNA samples were retrotranscribed to cDNA using LunaScript® RT SuperMix Kit (NEB) and analyzed by quantitative PCR (qPCR) (in technical triplicates) using a MYC specific TaqMan′ primer/probe set assay with the TaqMan™ Fast Advanced Master Mix (Thermo Scientific). MYC expression was quantified relative to the expression of GAPDH reference genes using the ΔΔCt method, the untreated samples were used as calibrators. […]

[3] = bi-cistronic ZF9-MQ1_ZF3-KRAB 0 μg/ml
[4] = bi-cistronic ZF9-MQ1_ZF3-KRAB 0.1 μg/ml
[5] = bi-cistronic ZF9-MQ1_ZF3-KRAB 0.6 μg/ml
[6] = A549, guide delivered with KRAB or MQ1, 120 hours
[7] = A549, guide delivered with dCAS9-KRAB effector mRNA, MC3 LNP 2.5 ug/ml, 72 hours
[8] = A549, guide delivered with dCAS9-KRAB effector mRNA, SSOP LNP 2.5 ug/ml, 72 hours
[9] = A549, guide delivered with dCas9 effectors EZH2, EZH2-KRAB and MQ1, 72 hours
[10] = NCI-H2009, guide delivered with KRAB or MQ1, 120 hours
[11] = NCI-H2009, guide delivered with dCas9 effectors EZH2, EZH2-KRAB and MQ1, 72 hours

Compound: CCNC(=O)C[C@@H]1N=C(c2ccc(Cl)cc2)c2cc(OC)ccc2-n2c(C)nnc21 [BET762]
- inhibition of A549 cell viability, single agent (A549 cells [1]): inhibited cell viability of A549 cells
- A549 cell viability, each agent separately (A549 cells [2]): inhibited cell viability

Compound: Cc1sc2c(c1C)C(c1ccc(Cl)cc1)=N[C@@H](CC(=O)OC(C)(C)C)c1nnc(C)n1-2 [JQ1]
- IC50 of JQ1 (SKHEP1 and Hep 3B cells; Hep 3B): reduced
- IC50 of JQ1 (SKHEP1 and Hep 3B cells; SKHEP1): reduced
- inhibition of A549 cell viability, single agent (A549 cells [1]): inhibited cell viability of A549 cells
- IC50 (Hep 3B cells; [3]): 6600 nM
- IC50 (Hep 3B cells; [4]): 600 nM
- IC50 (Hep 3B cells; [5]): 200 nM
- IC50 (SK-HEP-1 cells; [3]): > 25000 nM
- IC50 (SK-HEP-1 cells; [4]): 1900 nM
- IC50 (SK-HEP-1 cells; [5]): 1100 nM
- A549 cell viability, each agent separately (A549 cells [2]): inhibited cell viability

Compound: Cc1sc2c(c1C)C(c1ccc(Cl)cc1)=N[C@@H](CC(=O)Nc1ccc(O)cc1)c1nnc(C)n1-2 [birabresib]
- inhibition of A549 cell viability, single agent (A549 cells [1]): inhibited cell viability of A549 cells
- A549 cell viability, each agent separately (A549 cells [2]): inhibited cell viability

Compound: CC(=O)Nc1cccc(-n2c(=O)n(C3CC3)c(=O)c3c(Nc4ccc(I)cc4F)n(C)c(=O)c(C)c32)c1 [trametinib]
- inhibition of A549 cell viability, single agent (A549 cells [1]): inhibited cell viability of A549 cells
- A549 cell viability, each agent separately (A549 cells [2]): inhibited cell viability

Compound: GD-29833: guide RNA to MYC lung super-enhancer, SEQ ID NO: 96 (guide TGCCACTTCCCCACTAACCC; listed as DNA, chemistry not given here; listed as Homo sapiens)
- MYC mRNA down-regulation (in words) (MYC; [6]): significantly downregulate MYC mRNA levels
- MYC mRNA down-regulation (in words) (MYC; [7]): effectively downregulate MYC mRNA levels
- MYC mRNA down-regulation (in words) (MYC; [8]): effectively downregulate MYC mRNA levels
- MYC mRNA down-regulation (in words) (MYC; [9]): effectively downregulate MYC mRNA levels
- MYC mRNA down-regulation (in words) (MYC; [10]): significantly downregulate MYC mRNA levels
- MYC mRNA down-regulation (in words) (MYC; [11]): effectively downregulate MYC mRNA levels

Compound: GD-29914: guide RNA to MYC lung super-enhancer, SEQ ID NO: 108 (guide CAGCACTCTCGCTGACCGCA; listed as DNA, chemistry not given here; listed as Homo sapiens)
- MYC mRNA down-regulation (in words) (MYC; [6]): significantly downregulate MYC mRNA levels
- MYC mRNA down-regulation (in words) (MYC; [7]): effectively downregulate MYC mRNA levels
- MYC mRNA down-regulation (in words) (MYC; [8]): effectively downregulate MYC mRNA levels
- MYC mRNA down-regulation (in words) (MYC; [9]): effectively downregulate MYC mRNA levels
- MYC mRNA down-regulation (in words) (MYC; [10]): significantly downregulate MYC mRNA levels
- MYC mRNA down-regulation (in words) (MYC; [11]): effectively downregulate MYC mRNA levels
